In paper PMC10925993, “6-Aryl-4-cycloamino-1,3,5-triazine-2-amines: synthesis, antileukemic activity, and 3D-QSAR modelling” (RSC Advances, 2024):
Like-named read-outs stand apart in the source and are kept apart here.

What was measured:
Jurkat T cells = assay: Antiproliferative screening at 10 μM, MTS assay; assay type: cell-based, human; settings: Homo sapiens, read-out: Cell viability (%)
Procedure: The Jurkat T cell line was chosen for its reliability as a model for chemotherapeutic studies, particularly in T-cell leukemia.[13]
An MTS (3-(4,5-dimethylthiazol-2-yl)-5-(3-carboxymethoxyphenyl)-2-(4-sulfophenyl)-2H-tetrazolium inner salt) assay[20] was used to assess the leukemic cell viability. […] A total of 2 × 10^3 cells per 100 μL cell culture media were seeded into each well of a 96-well plate and incubated for 24 h. Then, tested compounds or reference drugs [6-mercaptopurine (Merck Millipore, Germany), methotrexate (Merck Millipore, Germany) and cytarabine (Merck Millipore, Germany)] were added, followed by incubation for 72 h. […] The absorbance in each well was measured at 490 nm using a microplate reader (Tecan NanoQuant Infinite M200 Pro, Austria). The percentage of cell viability was estimated by comparing absorbance in wells with the treated and untreated (vehicle control) cells using the following formula: ODtreated/ODuntreated × 100%. All experiments were performed in triplicate and repeated in three independent experiments. The GI50 values were calculated using sigmoidal concentration-response curves generated by the GraphPad Prism 8 program.[21]

[1] = Jurkat T cells, 10 μM, 72 h after treatment, MTS, mean of three independent experiments

| Compound | viability at 10 µM (Jurkat T cells; [1]) | melting point | viability at 10 µM (Jurkat T cells; Jurkat, 72 h) |
| --- | --- | --- | --- |
| Nc1nc(-c2ccccc2)nc(N2CCCC2)n1 [9{1,1}] | 100% | – | – |
| Nc1nc(-c2cccc(F)c2)nc(N2CCCC2)n1 [9{1,2}, 6-(3-Fluorophenyl)-4-pyrrolidino-1,3,5-triazine-2-amine] | 100% | 182 to 183 °C | – |
| Nc1nc(-c2ccc(F)cc2)nc(N2CCCC2)n1 [9{1,3}, 6-(4-Fluorophenyl)-4-pyrrolidino-1,3,5-triazine-2-amine] | 97% | 202 to 203 °C | – |
| Cc1cccc(-c2nc(N)nc(N3CCCC3)n2)c1 [9{1,5}, 6-(3-Methylphenyl)-4-pyrrolidino-1,3,5-triazine-2-amine] | 82% | 185 to 186 °C | – |
| Cc1ccc(-c2nc(N)nc(N3CCCC3)n2)cc1 [9{1,6}, 6-(4-Methylphenyl)-4-pyrrolidino-1,3,5-triazine-2-amine] | 100% | 229 to 230 °C | – |
| CC(C)(C)c1ccc(-c2nc(N)nc(N3CCCC3)n2)cc1 [9{1,7}, 6-[4-(tert-Butyl)phenyl]-4-pyrrolidino-1,3,5-triazine-2-amine] | 88% | 196 to 197 °C | – |
| COc1ccc(-c2nc(N)nc(N3CCCC3)n2)cc1 [9{1,9}, 6-(4-Methoxyphenyl)-4-pyrrolidino-1,3,5-triazine-2-amine] | 100% | 208 to 209 °C | – |
| Nc1nc(-c2cccc([N+](=O)[O-])c2)nc(N2CCCC2)n1 [9{1,10}, 6-(3-Nitrophenyl)-4-pyrrolidino-1,3,5-triazine-2-amine] | 94% | 207 to 208 °C | – |
| Nc1nc(-c2ccc(C(F)(F)F)cc2)nc(N2CCCC2)n1 [9{1,11}, 6-[4-(Trifluoromethyl)phenyl]-4-pyrrolidino-1,3,5-triazine-2-amine] | 78% | 186 to 187 °C | – |
| Nc1nc(-c2ccc(OC(F)(F)F)cc2)nc(N2CCCC2)n1 [9{1,12}, 6-[4-(Trifluoromethoxy)phenyl]-4-pyrrolidino-1,3,5-triazine-2-amine] | 96% | 149 to 150 °C | – |
| Nc1nc(-c2cccc(Oc3ccccc3)c2)nc(N2CCCC2)n1 [9{1,13}, 6-(3-Phenoxyphenyl)-4-pyrrolidino-1,3,5-triazine-2-amine] | 87% | 170 to 171 °C | – |
| Nc1nc(-c2ccc(OCc3ccccc3)cc2)nc(N2CCCC2)n1 [9{1,15}, 6-[4-(Benzyloxy)phenyl]-4-pyrrolidino-1,3,5-triazine-2-amine] | 94% | 201 to 202 °C | – |
| COc1ccc(-c2nc(N)nc(N3CCCC3)n2)cc1OC [9{1,16}, 6-(3,4-Dimethoxyphenyl)-4-pyrrolidino-1,3,5-triazine-2-amine] | 95% | 217 to 218 °C | – |
| COc1cc(-c2nc(N)nc(N3CCCC3)n2)cc(OC)c1OC [9{1,17}, 6-(3,4,5-Trimethoxyphenyl)-4-pyrrolidino-1,3,5-triazine-2-amine] | 98% | 213 to 214 °C | – |
| Nc1nc(-c2cccs2)nc(N2CCCC2)n1 [9{1,18}, 4-Pyrrolidino-6-(2-thienyl)-1,3,5-triazine-2-amine] | 100% | 210 to 211 °C | – |
| Nc1nc(-c2ccccc2)nc(N2CCCCC2)n1 [9{2,1}] | 100% | – | – |
| Nc1nc(-c2cccc(F)c2)nc(N2CCCCC2)n1 [9{2,2}, 6-(3-Fluorophenyl)-4-piperidino-1,3,5-triazine-2-amine] | 62% | 138 to 139 °C | – |
| Nc1nc(-c2ccc(F)cc2)nc(N2CCCCC2)n1 [9{2,3}, 6-(4-Fluorophenyl)-4-piperidino-1,3,5-triazine-2-amine] | 98% | 156 to 157 °C | – |
| Nc1nc(-c2ccc(Cl)cc2)nc(N2CCCCC2)n1 [9{2,4}, 6-(4-Chlorophenyl)-4-piperidino-1,3,5-triazine-2-amine] | 83% | 177 to 178 °C | – |
| Cc1ccc(-c2nc(N)nc(N3CCCCC3)n2)cc1 [9{2,6}, 6-(4-Methylphenyl)-4-piperidino-1,3,5-triazine-2-amine] | 100% | – | – |
| COc1ccc(-c2nc(N)nc(N3CCCCC3)n2)cc1 [9{2,9}, 6-(4-Methoxyphenyl)-4-piperidino-1,3,5-triazine-2-amine] | 100% | 178 to 179 °C | – |
| Nc1nc(-c2cccc([N+](=O)[O-])c2)nc(N2CCCCC2)n1 [9{2,10}, 6-(3-Nitrophenyl)-4-piperidino-1,3,5-triazine-2-amine] | 100% | 158 to 159 °C | – |
| CC1CCN(c2nc(N)nc(-c3ccccc3)n2)CC1 [9{3,1}] | 100% | – | – |
| CC1CCN(c2nc(N)nc(-c3cccc(F)c3)n2)CC1 [9{3,2}, 6-(3-Fluorophenyl)-4-(4-methylpiperidino)-1,3,5-triazine-2-amine] | 61% | 125 to 126 °C | – |
| CC1CCN(c2nc(N)nc(-c3ccc(F)cc3)n2)CC1 [9{3,3}, 6-(4-Fluorophenyl)-4-(4-methylpiperidino)-1,3,5-triazine-2-amine] | 86% | > 300 °C | – |
| CC1CCN(c2nc(N)nc(-c3ccc(Cl)cc3)n2)CC1 [9{3,4}, 6-(4-Chlorophenyl)-4-(4-methylpiperidino)-1,3,5-triazine-2-amine] | 79% | 168 to 169 °C | – |

| Compound | viability at 10 µM (Jurkat T cells; [1]) | melting point | viability at 10 µM (Jurkat T cells; Jurkat, 72 h) |
| --- | --- | --- | --- |
| Cc1ccc(-c2nc(N)nc(N3CCC(C)CC3)n2)cc1 [9{3,6}, 6-(4-Methylphenyl)-4-(4-methylpiperidino)-1,3,5-triazine-2-amine] | 100% | > 300 °C | – |
| CC1CCN(c2nc(N)nc(-c3ccc(N(C)C)cc3)n2)CC1 [9{3,8}, 6-[4-(N,N-Dimethylamino)phenyl]-4-(4-methylpiperidino)-1,3,5-triazine-2-amine] | 84% | 212 to 213 °C | – |
| COc1ccc(-c2nc(N)nc(N3CCC(C)CC3)n2)cc1 [9{3,9}, 6-(4-Methoxyphenyl)-4-(4-methylpiperidino)-1,3,5-triazine-2-amine] | 100% | 172 to 173 °C | – |
| CC1CCN(c2nc(N)nc(-c3cccc([N+](=O)[O-])c3)n2)CC1 [9{3,10}, 4-(4-Methylpiperidino)-6-(3-nitrophenyl)-1,3,5-triazine-2-amine] | 84% | 153 to 154 °C | – |
| COc1cc(-c2nc(N)nc(N3CCC(C)CC3)n2)cc(OC)c1OC [9{3,17}, 6-(3,4,5-Trimethoxyphenyl)-4-(4-methylpiperidino)-1,3,5-triazine-2-amine] | 95% | – | – |
| CN1CCN(c2nc(N)nc(-c3ccccc3)n2)CC1 [9{4,1}] | 100% | – | – |
| CN1CCN(c2nc(N)nc(-c3cccc(F)c3)n2)CC1 [9{4,2}, 6-(3-Fluorophenyl)-4-(4-methylpiperazino)-1,3,5-triazine-2-amine] | 95% | 187 to 188 °C | – |
| CN1CCN(c2nc(N)nc(-c3ccc(F)cc3)n2)CC1 [9{4,3}, 6-(4-Fluorophenyl)-4-(4-methylpiperazino)-1,3,5-triazine-2-amine] | 100% | 192 to 193 °C | – |
| CN1CCN(c2nc(N)nc(-c3ccc(Cl)cc3)n2)CC1 [9{4,4}, 6-(4-Chlorophenyl)-4-(4-methylpiperazino)-1,3,5-triazine-2-amine] | – | – | 100% |
| Cc1cccc(-c2nc(N)nc(N3CCN(C)CC3)n2)c1 [9{4,5}, 6-(3-Methylphenyl)-4-(4-methylpiperazino)-1,3,5-triazine-2-amine] | 95% | 194 to 195 °C | – |
| Nc1nc(-c2ccccc2)nc(N2CCOCC2)n1 [9{5,1}] | 98% | – | – |
| Nc1nc(-c2cccc(F)c2)nc(N2CCOCC2)n1 [9{5,2}] | 100% | – | – |
| Nc1nc(-c2ccc(F)cc2)nc(N2CCOCC2)n1 [9{5,3}] | 100% | – | – |
| Nc1nc(-c2ccc(Cl)cc2)nc(N2CCOCC2)n1 [9{5,4}] | 100% | – | – |
| Cc1cccc(-c2nc(N)nc(N3CCOCC3)n2)c1 [9{5,5}] | 100% | – | – |
| Cc1ccc(-c2nc(N)nc(N3CCOCC3)n2)cc1 [9{5,6}] | 100% | – | – |
| CC(C)(C)c1ccc(-c2nc(N)nc(N3CCOCC3)n2)cc1 [9{5,7}] | 60% | – | – |
| CN(C)c1ccc(-c2nc(N)nc(N3CCOCC3)n2)cc1 [9{5,8}] | 100% | – | – |
| COc1ccc(-c2nc(N)nc(N3CCOCC3)n2)cc1 [9{5,9}] | 100% | – | – |
| Nc1nc(-c2ccc(OC(F)(F)F)cc2)nc(N2CCOCC2)n1 [9{5,12}] | 100% | – | – |
| Nc1nc(-c2cccc(Oc3ccccc3)c2)nc(N2CCOCC2)n1 [9{5,13}] | 78% | – | – |
| Nc1nc(-c2cccc(OCc3ccccc3)c2)nc(N2CCOCC2)n1 [9{5,14}] | 63% | – | – |
| Nc1nc(-c2ccc(OCc3ccccc3)cc2)nc(N2CCOCC2)n1 [9{5,15}] | 94% | – | – |
| COc1ccc(-c2nc(N)nc(N3CCOCC3)n2)cc1OC [9{5,16}] | 100% | – | – |
| COc1cc(-c2nc(N)nc(N3CCOCC3)n2)cc(OC)c1OC [9{5,17}] | 100% | – | – |
| Nc1nc(-c2cccs2)nc(N2CCOCC2)n1 [9{5,18}] | 77% | – | – |
